Test results as given in patent publication US20230364079A1, “COMPOUND AS BRAIN-PERMEABLE BTK OR HER2 INHIBITOR, PREPARATION METHOD THEREFOR, AND USE THEREOF” (CHENGDU HYPERWAY PHARMACEUTICALS CO., LTD., priority 2020, published 2023).
pIC50: −log10 of the molar value.

Assays:
[1] = molecular target: BTK mutation-type C481S kinase (Homo sapiens (Human), UniProt Q06187, C481S); test: BTK-C481S kinase activity inhibition test in vitro (Caliper EZ Reader); assay type: biochemical
Method: (§1) In the tests on the activity of inhibiting BTK and HER2 kinase in vitro in the examples of the present disclosure, powder of the compound was dissolved in 100% DMSO to prepare a 10 mM stock solution and stored at-20° C. in the dark. […] In addition, the compounds were subjected to experiments such as liver microsome metabolic stability, rat PK, rat brain penetration rate, and drug efficacy model in the examples of the present disclosure.
(§2) Compound powders were dissolved in 100% DMSO to make 10 mM stock solutions, which were stored at -20° C. in the dark.
(§3) 2: Kinase Reaction Process
(§4) (1) Preparation of 1 × Kinase buffer.
(§5) (5) After centrifugation at 1000 rpm for 30 seconds, the reaction plate was shaken to mix well and incubated at room temperature for 10 min.
(§6) (6) A 5/3-fold final concentration of a mixed solution of ATP and Kinase substrate 2 was prepared with 1 × Kinase buffer.
(§7) (7) 15 µL of the mixed solution of ATP and substrate with 5/3-fold final concentration was added to start the reaction.
(§8) (8) The 384-well plate was centrifuged at 1000 rpm for 30 seconds, shaken to mix well, and incubated at room temperature for 10 min.
(§9) (9) 30 µL of a stop solution was added to stop the kinase reaction, and after centrifugation at 1000 rpm for 30 seconds, the plate was shaken to mix well;
(§10) (10) The conversion rate was read with Caliper EZ Reader.
(§11) where Conversion%_sample indicates the conversion rate reading of the sample; Conversion%_min is the average reading of the negative control wells, representing the conversion rate reading of the wells without enzyme activity; Conversion%_max is the average reading of the ratio of the positive control wells, representing the conversion rate reading of the wells without compound inhibition.
(§12) Dose-Response Curve Fitting
(§13) With the log value of the concentration as the X-axis, and the percentage inhibition rate as the Y-axis, the dose-effect curve was fitted using the log(inhibitor) vs. response-Variable slope of the analysis software GraphPad Prism 5, so as to determine the IC50 value of each compound on the enzyme activity.
(§14) The calculation formula was: […]

BTK wild-type kinase = BTK wild-type kinase (Homo sapiens (Human), UniProt Q06187); test: BTK kinase activity inhibition test in vitro (Caliper EZ Reader); assay type: biochemical
Chain of BTK wild-type kinase (Q06187 whole entry): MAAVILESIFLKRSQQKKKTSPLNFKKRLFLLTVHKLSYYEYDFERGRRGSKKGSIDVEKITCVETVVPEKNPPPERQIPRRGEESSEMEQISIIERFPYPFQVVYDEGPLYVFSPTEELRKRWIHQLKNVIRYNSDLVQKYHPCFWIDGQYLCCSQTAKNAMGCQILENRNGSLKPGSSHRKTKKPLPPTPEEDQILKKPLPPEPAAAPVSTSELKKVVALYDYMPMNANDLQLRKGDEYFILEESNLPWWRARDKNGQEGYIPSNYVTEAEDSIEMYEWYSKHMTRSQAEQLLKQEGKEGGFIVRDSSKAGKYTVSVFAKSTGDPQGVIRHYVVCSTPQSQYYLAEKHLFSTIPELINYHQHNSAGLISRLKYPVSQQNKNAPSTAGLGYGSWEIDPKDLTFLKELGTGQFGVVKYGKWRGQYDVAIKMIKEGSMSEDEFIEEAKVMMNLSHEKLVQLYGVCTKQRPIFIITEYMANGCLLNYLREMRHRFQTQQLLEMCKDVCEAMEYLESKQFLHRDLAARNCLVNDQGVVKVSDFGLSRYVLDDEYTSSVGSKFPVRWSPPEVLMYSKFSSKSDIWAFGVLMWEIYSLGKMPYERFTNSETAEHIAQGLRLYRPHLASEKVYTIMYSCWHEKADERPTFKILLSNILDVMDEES
Method: as §1, §2, §3, §4, §5, §6, §7, §8, §9, §10, §11, §12, §13, §14

[2] = Liver microsome metabolic stability test, human; assay type: in vitro ADME; conditions: for microsomal CLint / half-life: liver microsomes; for half-life: read-out: T½
Method: (§15) 1: To the sample wells of T0, T5, T10, T20, T30, T60 and NCF60, 10 µL of the test or reference working solution and 80 µL of microsome working solution (hepatic microsome with a protein concentration of 0.5 mg/mL) were added, and to Blank60 well, only the microsome working solution was added. Then samples of the Blank60, T5, T10, T20, T30 and T60 other than T0 and NCF60 were placed in a 37° C. water bath and pre-incubated for about 10 min.
(§16) 2: To the T0 sample well, 300 µL of stop solution (containing 200 ng/mL tolbutamide and 200 ng/mL labetalol in acetonitrile solution) was added first, followed by 10 µL of NADPH regeneration system working solution.
(§17) 3: After the pre-incubation of Blank60, T5, T10, T20, T30 and T60 incubation plates, 10 µL of NADPH regeneration system working solution was added to each sample well to start the reaction, and 10 µL of 100 mM potassium phosphate buffer was added to the NCF60 sample well.
(§18) 4: After incubation for an appropriate time (such as 5, 10, 20, 30 and 60 min), to each test sample well and control well of the Blank60, T5, T10, T20, T30, T60 and NCF60 plates, 300 µL of stop solution was added to terminate the reaction.
(§19) 5: All sample plates were shaken to mix well and centrifuged at 4000 rpm for 20 min, and 100 µL of the supernatant of the test sample or control sample was taken and diluted with 300 µL of pure water for LC-MS/MS analysis.
(§20) 6: Data analysis: T½ and CLint(mic) (µL/min/mg) values were calculated according to the first-order elimination kinetics. The first-order elimination kinetics equation was: […]

[3] = Liver microsome metabolic stability test, rat; assay type: in vitro ADME; conditions: for microsomal CLint / half-life: liver microsomes; for half-life: read-out: T½
Method: as §15, §16, §17, §18, §19, §20

[4] = Pharmacokinetic test, oral, SD rats; assay type: in vivo; conditions: oral 10 mg/kg, plasma; for AUC(0-inf) / Cmax / half-life: rat; for Cmax: read-out: Cmax; for half-life: read-out: T½ (converted)
Method: Each test compound was administered orally (10 mg/kg, 3 rats in each group) to SD rats for pharmacokinetic study. […] Animals were fasted overnight before oral administration, and fed again after 4 h of administration. […] At each collection time point, 3 whole blood samples were collected at a the collection volume of about 0.2-0.3 mL. […] The collected plasma was stored at -20° C. before analysis. 20 µL of plasma sample was added into a 1.6 mL 96-well deep-well plate, added with 200 µL of working internal standard solution (the same volume of vehicle was added to the blank instead of internal standard), vortexed for 1 min, and centrifuged at 5800 rpm for 10 min. 100 µL of the supernatant was added to a 96-well injection plate for LC-MS/MS analysis.

Chain of BTK mutation-type C481S kinase (Q06187 whole entry C481S): as the sequence (Q06187 whole entry) above, with C481S counted along it

SMILES | pIC50 [1] | pIC50 (BTK wild-type kinase) | half-life ([2]; 0.5 mg/mL protein) | half-life ([3]; 0.5 mg/mL protein) | %Remaining (60 min) [2] | %Remaining (60 min) [3] | other results
Nc1cccc(NC(=O)c2ccc(-c3nc([C@@H]4CC[C@@H](CO)OC4)n4ccnc(N)c34)cc2)n1 (single isomer, unassigned) [Compound 2-A-P2] | 7.00 to 7.70 | 7.00 to 7.70 | – | – | – | – | –
COc1ccccc1C(=O)NCc1ccc(-c2nn(C3CCC(CO)OC3)c3ncnc(N)c23)cc1 (single isomer, unassigned) [Compound 60-A] | – | 7.70 to 8.30 | > 145 min | 143 min | – | – | microsomal CLint [2]: < 9.6 µL/min/mg; microsomal CLint [3]: 9.7 µL/min/mg
Nc1nccn2c(C3CCC(CO)OC3)nc(-c3ccc(C(=O)Nc4cc(C(F)(F)F)ccn4)cc3)c12 (single isomer, unassigned) [Compound 109-P1] | > 8.30 | > 8.30 | > 145 min | 114 min | 85.4% | 72.7% | microsomal CLint [2]: < 9.6 µL/min/mg; microsomal CLint [3]: 12.2 µL/min/mg; Cl [4]: 1.62 mL/min/kg; AUC(0-inf) [4]: 104000 ng·h/mL; Cmax [4]: 16700 ng/mL; half-life [4]: 170 min
Nc1nccn2c(C3CC[C@@H](CO)OC3)nc(-c3ccc(C(=O)Nc4ccccn4)cc3F)c12 (some centres unmarked) [Compound 1-B] | 7.70 to 8.30 | 7.00 to 7.70 | – | – | 99.9% | 63.7% | CLint [2]: <9.6 µL/min/mg; T½ ([2]; 0.5 mg/mL protein): >145 min; CLint [3]: 18.2 µL/min/mg; T½ ([3]; 0.5 mg/mL protein): 76.1 min
COc1cccc(Oc2ccc(-c3nc(C4CCC(CO)OC4)n4ccnc(N)c34)cc2)c1F (centres unmarked) [Compound 5] | > 8.30 | > 8.30 | 35.7 min | 11.4 min | 31.7% | 12.7% | Cl [4]: 69.13 mL/min/kg; AUC(0-inf) [4]: 2520 ng·h/mL; Cmax [4]: 463 ng/mL; half-life [4]: 70.2 min
[2H]C([2H])([2H])Oc1cccc(Oc2ccc(-c3nc(C4CCC(CO)OC4)n4ccnc(N)c34)cc2)c1F (centres unmarked) [Compound 7] | > 8.30 | > 8.30 | – | – | – | – | –
Nc1nccn2c(C3CCC(CO)OC3)nc(-c3ccc(Oc4cccc(F)c4F)cc3)c12 (centres unmarked) [Compound 8] | > 8.30 | > 8.30 | 40.9 min | 20.8 min | 37.4% | 13.6% | –
Nc1nccn2c(C3CCC(CO)OC3)nc(-c3ccc(Oc4cccc(Cl)c4F)cc3)c12 (centres unmarked) [Compound 9] | – | – | 28.6 min | 12.2 min | 24.5% | 3.2% | –
COc1cccc(Oc2ccc(-c3nc(C4CCC(CO)OC4)n4c(Cl)cnc(N)c34)cc2)c1F (centres unmarked) [Compound 12] | – | – | 11.1 min | 11.8 min | 2.6% | 3.0% | –
Nc1nccn2c(C3CCC(CO)OC3)nc(-c3ccc(Oc4ccccc4)cc3)c12 (centres unmarked) [Compound 16] | – | 7.70 to 8.30 | 37.5 min | 21.7 min | 31.8% | 14.6% | –
Nc1nccn2c(C3CCC(CO)OC3)nc(-c3ccc(Oc4ccccc4)cc3F)c12 (centres unmarked) [Compound 17] | 7.70 to 8.30 | 7.70 to 8.30 | – | – | – | – | –
Nc1nccn2c(C3CCC(CO)OC3)nc(-c3ccc(Oc4cccc(C(F)(F)F)c4F)cc3)c12 (centres unmarked) [Compound 19] | – | 7.70 to 8.30 | 29.4 min | 16.7 min | 23.5% | 7.9% | –
